Assay results: patent US12662490B2, “Heterocyclic compounds” (Hoffmann-La Roche Inc., priority 2019, dated 2026)

The molecules below were run against T1, MAGL (Homo sapiens, UniProt Q99685) (assay: 2-AG assay (MAGL inhibitory activity; hydrolysis of 2-arachidonoylglycerol to arachidonic acid followed by mass spectrometry)). Settings: 15 min preincubation at RT, 8 μM 2-arachidonoylglycerol, 30 min at RT, RapidFire MS readout.
T1 sequence (Q99685 1-303): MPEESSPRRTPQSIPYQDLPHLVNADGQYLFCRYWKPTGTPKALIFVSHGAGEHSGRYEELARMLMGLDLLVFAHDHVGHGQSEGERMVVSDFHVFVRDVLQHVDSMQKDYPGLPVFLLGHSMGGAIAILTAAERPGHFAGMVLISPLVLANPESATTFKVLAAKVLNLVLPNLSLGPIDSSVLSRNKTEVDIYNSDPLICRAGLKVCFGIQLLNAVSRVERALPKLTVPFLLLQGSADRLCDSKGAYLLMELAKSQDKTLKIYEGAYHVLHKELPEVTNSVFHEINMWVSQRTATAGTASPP
Type: biochemical
Protocol: Compounds were profiled for MAGL inhibitory activity by determining the enzymatic activity by following the hydrolysis of the natural substrate 2-arachidonoylglycerol (2-AG) resulting in arachidonic acid, which can be followed by mass spectrometry. This assay is hereinafter abbreviated “2-AG assay”.
The 2-AG assay was carried out in 384 well assay plates (PP, Greiner Cat #784201) in a total volume of 20 μL. Compound dilutions were made in […] (VWR Chemicals 23500.297) in a polypropylene plate in 3-fold dilution steps to give a final concentration range in the assay from 12.5 μM to […]. 0.25 μL compound dilutions (100% DMSO) were added to 9 μL MAGL in assay buffer (50 mM TRIS (GIBCO, 15567-027), 1 mM EDTA (Fluka, 03690-100 mL), 0.010 (v/v) Tween. After shaking, the plate was incubated for 15 min at RT. To start the reaction, 10 μL 2-arachidonoylglycerol in assay buffer was added. The final concentrations in the assay was […] and 8 μM 2-arachidonoylglyerol. After shaking and 30 min incubation at RT, the reaction was quenched by the addition of 40 μL of ACN containing 4 μM of d8-arachidonic acid. The amount of arachidonic acid was traced by an online SPE system (Agilent Rapidfire) coupled to a triple quadrupole mass spectrometer (Agilent 6460). A C18 SPE cartridge (G9205A) was used in an ACN/water liquid setup. The mass spectrometer was operated in negative electrospray mode following the mass transitions 303.1→259.1 for arachidonic acid and 311.1→267.0 for d8-arachidonic acid. The activity of the compounds was calculated based on the ratio of intensities [arachidonic acid/d8-arachidonic acid].

Row | IC50 [nM] | SMILES
1 | 94.8 | COc1cccc(C(=O)N2CCN3C[C@@H](c4ccc(F)c(C5CC5)c4)OC[C@@H]3C2)c1Cl [Example 24, [(3R,9aS)-3-(3-cyclopropyl-4-fluoro-phenyl)-3,4,6,7,9,9a-hexahydro-1H-pyrazino[2,1-c][1,4]oxazin-8-yl]-(2-chloro-3-methoxy-phenyl)methanone]
2 | 16.1 | O=C(c1cccc(-c2ccccc2)c1Cl)N1CCN2C[C@@H](c3ccc(F)c(Cl)c3)OC[C@@H]2C1 [Example 22, [(3R,9aS)-3-(3-chloro-4-fluoro-phenyl)-3,4,6,7,9,9a-hexahydro-1H-pyrazino[2,1-c][1,4]oxazin-8-yl]-(2-chloro-3-phenyl-phenyl)methanone]
3 | 4570 | COc1cc(OC)c(Cl)c(C(=O)N2CCN3C[C@H](c4ccc(F)c(Cl)c4)OC[C@@H]3C2)c1 [Example 17, [(3S,9aS)-3-(3-chloro-4-fluoro-phenyl)-3,4,6,7,9,9a-hexahydro-1H-pyrazino[2,1-c][1,4]oxazin-8-yl]-(2-chloro-3,5-dimethoxy-phenyl)methanone]
4 | 103 | COc1cccc(C(=O)N2CCN3C[C@@H](c4cc(F)c(F)cc4F)OC[C@@H]3C2)c1Cl [Example 128, [(3R,9aS)-3-(2,4,5-trifluorophenyl)-3,4,6,7,9,9a-hexahydro-1H-pyrazino[2,1-c][1,4]oxazin-8-yl]-(2-chloro-3-methoxy-phenyl)methanone]
5 | 80.4 | O=C(c1cccc(-c2c[nH]nc2F)c1)N1CCN2C[C@@](O)(c3ccc(C(F)(F)F)nc3)OC[C@@H]2C1 [Example 81, [(3R,9aS)-3-hydroxy-3-[6-(trifluoromethyl)-3-pyridyl]-1,4,6,7,9,9a-hexahydropyrazino[2,1-c][1,4]oxazin-8-yl]-[3-(3-fluoro-1H-pyrazol-4-yl)phenyl]methanone]
6 | 13.8 | O=C(c1cccc(-c2c[nH]nc2F)c1Cl)N1CCN2C[C@@](O)(c3ccc(C(F)(F)F)nc3)OC[C@@H]2C1 [Example 65, [(3R,9aS)-3-hydroxy-3-[6-(trifluoromethyl)pyridin-3-yl]-1,4,6,7,9,9a-hexahydropyrazino[2,1-c][1,4]oxazin-8-yl]-[2-chloro-3-(3-fluoro-1H-pyrazol-4-yl)phenyl]methanone]
7 | 850 | COc1cccc(C(=O)N2CCN3C[C@@H](c4cc(Cl)c[nH]c4=O)OC[C@@H]3C2)c1Cl [Example 75, 3-[(3R,9aS)-8-(2-chloro-3-methoxy-benzoyl)-3,4,6,7,9,9a-hexahydro-1H-pyrazino[2,1-c][1,4]oxazin-3-yl]-5-chloro-1H-pyridin-2-one]
8 | 1.9 | O=C(c1cccc(-c2cn[nH]c2)c1Cl)N1CCN2C[C@@H](c3ccc(F)c(Cl)c3)OC[C@@H]2C1 [Example 38, [(3R,9aS)-3-(3-chloro-4-fluoro-phenyl)-3,4,6,7,9,9a-hexahydro-1H-pyrazino[2,1-c][1,4]oxazin-8-yl]-[2-chloro-3-(1H-pyrazol-4-yl)phenyl]methanone]
9 | 363 | COc1cccc(C(=O)N2CCN3CC(c4ccc(F)c(-c5cnco5)c4)OC[C@@H]3C2)c1Cl (stereo partly drawn) [Example 145, [(9aS)-3-(4-fluoro-3-oxazol-5-yl-phenyl)-3,4,6,7,9,9a-hexahydro-1H-pyrazino[2,1-c][1,4]oxazin-8-yl]-(2-chloro-3-methoxy-phenyl)methanone]
10 | 28.2 | O=C(c1cnc2sccc2c1Cl)N1CCN2C[C@@H](c3ccc(F)c(Cl)c3)OC[C@@H]2C1 [Example 5, (4-chlorothieno[2,3-b]pyridin-5-yl)-[(3R,9aS)-3-(3-chloro-4-fluoro-phenyl)-3,4,6,7,9,9a-hexahydro-1H-pyrazino[2,1-c][1,4]oxazin-8-yl]methanone]
11 | 190 | N#Cc1cc(-c2cccc(C(=O)N3CCN4C[C@@H](c5ccc(F)c(Cl)c5)OC[C@@H]4C3)c2Cl)n[nH]1 [Example 138, 3-[3-[(3R,9aS)-3-(3-chloro-4-fluoro-phenyl)-3,4,6,7,9,9a-hexahydro-1H-pyrazino[2,1-c][1,4]oxazine-8-carbonyl]-2-chloro-phenyl]-1H-pyrazole-5-carbonitrile]
12 | 780 | COc1cccc(C(=O)N2CCN3C[C@@H](c4ccc(C(F)(F)F)[nH]c4=O)OC[C@@H]3C2)c1Cl [Example 155, 3-[(3R,9aS)-8-(2-chloro-3-methoxy-benzoyl)-3,4,6,7,9,9a-hexahydro-1H-pyrazino[2,1-c][1,4]oxazin-3-yl]-6-(trifluoromethyl)-1H-pyridin-2-one]
13 | 575 | COc1cccc(C(=O)N2CCN3C[C@H](c4ccc(F)c(-c5ccccc5)c4)OC[C@@H]3C2)c1Cl [Example 12, [(3S,9aS)-3-(4-fluoro-3-phenyl-phenyl)-3,4,6,7,9,9a-hexahydro-1H-pyrazino[2,1-c][1,4]oxazin-8-yl]-(2-chloro-3-methoxy-phenyl)methanone]
14 | 9.1 | O=C(c1cccc(-c2c[nH]nc2F)c1Cl)N1CCN2C[C@@](O)(c3ccc(F)c(F)c3)OC[C@@H]2C1 [Example 92, [(3R,9aS)-3-(3,4-difluorophenyl)-3-hydroxy-1,4,6,7,9,9a-hexahydropyrazino[2,1-c][1,4]oxazin-8-yl]-[2-chloro-3-(3-fluoro-1H-pyrazol-4-yl)phenyl]methanone]
15 | 51.8 | O=C(c1cccc(-c2c[nH]nc2F)c1Cl)N1CCN2C[C@@](O)(c3ccc(OC(F)F)cc3)OC[C@@H]2C1 [Example 69, [2-chloro-3-(3-fluoro-1H-pyrazol-4-yl)phenyl]-[(3R,9aS)-3-[4-(difluoromethoxy)phenyl]-3-hydroxy-1,4,6,7,9,9a-hexahydropyrazino[2,1-c][1,4]oxazin-8-yl]methanone]
16 | 237 | O=C(c1cccc(-c2cocn2)c1Cl)N1CCN2C[C@@](O)(c3ccc(C(F)(F)F)cn3)OC[C@@H]2C1 [Example 86, [(3S,9aS)-3-hydroxy-3-[5-(trifluoromethyl)-2-pyridyl]-1,4,6,7,9,9a-hexahydropyrazino[2,1-c][1,4]oxazin-8-yl]-(2-chloro-3-oxazol-4-yl-phenyl)methanone]
17 | 48.6 | O=C(c1cccc(-c2c[nH]c(=O)o2)c1Cl)N1CCN2C[C@@](O)(c3ccc(Cl)c(Cl)c3)OC[C@@H]2C1 [Example 122, 5-[3-[(3R,9aS)-3-(3,4-dichlorophenyl)-3-hydroxy-1,4,6,7,9,9a-hexahydropyrazino[2,1-c][1,4]oxazine-8-carbonyl]-2-chloro-phenyl]-3H-oxazol-2-one]
18 | 1440 | Cc1ccnnc1-c1cccc(C(=O)N2CCN3C[C@@H](c4ccc(F)c(Cl)c4)OC[C@@H]3C2)c1Cl [Example 34, [(3R,9aS)-3-(3-chloro-4-fluoro-phenyl)-3,4,6,7,9,9a-hexahydro-1H-pyrazino[2,1-c][1,4]oxazin-8-yl]-[2-chloro-3-(4-methylpyridazin-3-yl)phenyl]methanone]
19 | 51.2 | COc1cc(OC)c(Cl)c(C(=O)N2CCN3C[C@@H](c4ccc(F)c(Cl)c4)OC[C@@H]3C2)c1 [Example 18, [(3R,9aS)-3-(3-chloro-4-fluoro-phenyl)-3,4,6,7,9,9a-hexahydro-1H-pyrazino[2,1-c][1,4]oxazin-8-yl]-(2-chloro-3,5-dimethoxy-phenyl)methanone]
20 | 5 | COc1cccc(C(=O)N2CCN3C[C@@H](c4ccc(Br)c(Cl)c4)OC[C@@H]3C2)c1Cl [Example 110, [(3R,9aS)-3-(4-bromo-3-chloro-phenyl)-3,4,6,7,9,9a-hexahydro-1H-pyrazino[2,1-c][1,4]oxazin-8-yl]-(2-chloro-3-methoxy-phenyl)methanone]
21 | 815 | COc1cccc(C(=O)N2CCN3CC(c4ccc(F)c(-c5ccn(C)c5)c4)OC[C@@H]3C2)c1Cl (stereo partly drawn) [Example 156, [(9aS)-3-[4-fluoro-3-(1-methylpyrrol-3-yl)phenyl]-3,4,6,7,9,9a-hexahydro-1H-pyrazino[2,1-c][1,4]oxazin-8-yl]-(2-chloro-3-methoxy-phenyl)methanone]
22 | 7.6 | N#Cc1cc(-c2cccc(C(=O)N3CCN4C[C@@](O)(c5ccc(F)c(F)c5)OC[C@@H]4C3)c2Cl)c[nH]1 [Example 113, 4-[3-[(3R,9aS)-3-(3,4-difluorophenyl)-3-hydroxy-1,4,6,7,9,9a-hexahydropyrazino[2,1-c][1,4]oxazine-8-carbonyl]-2-chloro-phenyl]-1H-pyrrole-2-carbonitrile]
23 | 152 | COc1cccc(C(=O)N2CCN3C[C@@](O)(c4ccc(C(F)(F)F)[nH]c4=O)OC[C@@H]3C2)c1Cl [Example 136, 3-[(3R,9aS)-8-(2-chloro-3-methoxy-benzoyl)-3-hydroxy-1,4,6,7,9,9a-hexahydropyrazino[2,1-c][1,4]oxazin-3-yl]-6-(trifluoromethyl)-1H-pyridin-2-one]
